Assay results as given in US6727226B2 (priority 2000, dated 2004).

Columns and labels:
[1] = guinea pig, in vivo
neurotensin receptors = conditions: in vivo; cited from earlier work

Compound	duration of local anesthesia [1]	potency in inhibiting pain relative to neurotensin (neurotensin receptors)
CCCCN1CCCCC1C(=O)Nc1c(C)cccc1C (centres unmarked) [bupivacaine]	slightly longer duration thatn lidocaine	
contulakin-G		significantly more potent than neurotensin
